Data as given in patent publication US20260258172A1, “CATIONIC POLYMERS WITH SELECTIVE ANTIFUNGAL PROPERTIES” (Uniwersytet Jagiellonski, priority 2022, published 2026).

Key:
Assay type in all cases: cell-based
[1] = system: 3T3-L1 murine embryonic fibroblast line; test: Neutral red uptake toxicity test, 3T3-L1 fibroblasts; settings: medium with serum, 24 h exposure
Protocol: Preliminary tests were conducted in the 3T3-L1 murine embryonic fibroblast line (ATCC, CL-173™), an immortalized line (highly tolerant cells). DMEM was used as the medium. 24 h after seeding and successful adhesion, polymers dissolved in the medium were added to the cells (the medium was first replaced with a serum-free medium in serum-free experiments), and viable cells were quantified after another 24 h using the neutral red uptake assay.
The toxicity of ciclopirox and terbinafine, two commercially used antifungal drugs, was evaluated in similar conditions (the same cell line, medium composition and exposure time).

[2] = system: HaCaT cell line; test: Neutral red uptake toxicity test, HaCaT keratinocytes; settings: human, 24 h, 5 μg/mL
Protocol: The testing was performed in the HaCaT cell line, a nontumorigenic, immortalized human keratinocyte line. The DMEM medium was used in the culture, including a modification with 10% fetal bovine serum added. 24 h after seeding and successful adhesion, the polymer dissolved in the medium was added to the cells (the medium was first replaced with a serum-free medium in serum-free experiments), and viable cells were quantified after another 24 h using the neutral red uptake assay.
The toxicity of terbinafine and ciclopirox, two commercially used antifungal drugs, was evaluated in similar conditions (the same cell line, medium composition and exposure time). As for ciclopirox, the serum-free medium was not used because the drug strongly interacts with serum and testing in a serum-free medium would have been unreliable. The results are shown in graphs in FIG. 8 and FIG. 9.

[3] = system: Aspergillus brasiliensis ATCC 16404; test: Antifungal microdilution MIC test; settings: Aspergillus brasiliensis, ATCC16404, comparative test
Protocol: (§1) In vitro tests of the antifungal activity of the polymers were performed with respect to selected fungal species obtained from international culture collections and the microorganism collection in the Department of Infection Control and Mycology, Chair of Microbiology, Jagiellonian University Medical College. The test was performed using the microdilution method in a liquid medium on flat-bottomed, 96-well polypropylene titration plates. The applied methodology was based on antifungal susceptibility testing procedures developed by the European Committee on Antimicrobial Susceptibility Testing (EUCAST) and on the Hancock Lab procedure for antimicrobial cationic peptides.
(§2) The test compounds were dissolved in sterile distilled water and starting concentrations of 5 g/L were prepared, from which a series of two-fold dilutions in water were obtained. Respective polymer dilutions were transferred in a volume of 20 μL on titration plates (wells 1-10). 20 μL of sterile distilled water was transferred to each of wells 11 and 12. Wells 1-11 were inoculated with fungi in a volume of 180 μL of fungal cell suspensions in a liquid medium, and 180 μL of the sterile medium was transferred to well 12. Fungal suspensions were prepared from fresh cultures on agar media by collecting spores using a sterile swab into sterile distilled water or sterile distilled water with Tween-20 added. Suspensions of certain strains were filtered to remove any hyphal elements (filters with a pore diameter of 20 μm and 10 μm were used). The suspensions were brought to a density of 0.5 on the McFarland scale, and subsequently diluted to 1:20 in a liquid RPMI-1640 medium with L-glutamine and without sodium bicarbonate, supplemented with glucose (2%) and buffered morpholinopropanesulfonic acid (MOPS) (0.165 mol/L).
(§3) Final polymer concentrations on plates after adding fungal suspensions in the liquid medium were 0.49-250 mg/L or 0.98-500 mg/L.
(§4) Incubation was performed at room temperature, 27° C., 37° C., depending on the fungal species, until fungal growth was obtained in growth control (well 11). After the incubation period, fungal growth was evaluated visually and the lowest polymer concentrations that caused complete fungal growth inhibition (MIC (minimal inhibitory concentration) values) were determined.
(§5) A test was performed on selected fungal strains to compare MIC values of the PMAPTAC133 polymer with the MIC values of two known antifungal drugs (terbinafine and ciclopirox), used in the treatment of fungal infections of glabrous skin, hairy skin and nails.
(§6) The procedure described in the section above (Example 8) was used in the testing.
(§7) The drugs were dissolved in dimethyl sulfoxide (DMSO) and starting concentrations of 4 g/L were prepared, from which series of two-fold dilutions in DMSO were obtained. Respective […] concentrations were diluted to 1:100 in sterile water and subsequently transferred to wells 1-10 on a titration plate in a volume of 20 μL. Wells 11 and 12 were filled up with 20 μL DMSO diluted to 1:10 in water. Wells 1-11 were inoculated with fungi in a volume of 180 μL of fungal cell suspensions in a liquid medium, and […] of the sterile medium was transferred to well 12. Final drug concentrations on plates after adding fungal suspensions in the liquid medium were 0.008-4 mg/L.

[4] = system: Aspergillus flavus ATCC 204304; test: Antifungal microdilution MIC test; settings: Aspergillus flavus, ATCC204304, comparative test
Protocol: as §1, §2, §3, §4, §5, §6, §7

[5] = system: Aspergillus fumigatus DSM 819; test: Antifungal microdilution MIC test; settings: Aspergillus fumigatus, DSM819, comparative test
Protocol: as §1, §2, §3, §4, §5, §6, §7

[6] = system: Aspergillus fumigatus SU 56; test: Antifungal microdilution MIC test; settings: Aspergillus fumigatus, SU56, comparative test
Protocol: as §1, §2, §3, §4, §5, §6, §7

[7] = system: Aspergillus terreus DSM 1958; test: Antifungal microdilution MIC test; settings: Aspergillus terreus, DSM1958, comparative test
Protocol: as §1, §2, §3, §4, §5, §6, §7

[8] = system: Candida albicans ATCC 90028; test: Antifungal microdilution MIC test; settings: ATCC90028, comparative test
Protocol: as §1, §2, §3, §4, §5, §6, §7

[9] = system: Cryptococcus neoformans; test: Antifungal microdilution MIC test; settings: comparative test; for MIC: Cryptococcus neoformans
Protocol: as §1, §2, §3, §4, §5, §6, §7

[10] = system: Fusarium solani strain 155; test: Antifungal microdilution MIC test; settings: comparative test
Protocol: as §1, §2, §3, §4, §5, §6, §7

[11] = system: Scopulariopsis brevicaulis 34; test: Antifungal microdilution MIC test; settings: comparative test
Protocol: as §1, §2, §3, §4, §5, §6, §7

[12] = system: Scopulariopsis brevicaulis DSM 9122; test: Antifungal microdilution MIC test; settings: DSM9122, comparative test
Protocol: as §1, §2, §3, §4, §5, §6, §7

[13] = system: Trichophyton interdigitale 251; test: Antifungal microdilution MIC test; settings: comparative test
Protocol: as §1, §2, §3, §4, §5, §6, §7

[14] = system: Trichophyton interdigitale D182; test: Antifungal microdilution MIC test; settings: comparative test
Protocol: as §1, §2, §3, §4, §5, §6, §7

[15] = system: Trichophyton interdigitale DSM4167; test: Antifungal microdilution MIC test; settings: comparative test
Protocol: as §1, §2, §3, §4, §5, §6, §7

[16] = system: Trichophyton mentagrophytes ATCC 18484; test: Antifungal microdilution MIC test; settings: Trichophyton mentagrophytes, ATCC18484, comparative test
Protocol: as §1, §2, §3, §4, §5, §6, §7

[17] = system: Trichophyton rubrum D197; test: Antifungal microdilution MIC test; settings: comparative test
Protocol: as §1, §2, §3, §4, §5, §6, §7

[18] = system: Trichophyton rubrum D320; test: Antifungal microdilution MIC test; settings: comparative test
Protocol: as §1, §2, §3, §4, §5, §6, §7

[19] = system: Trichophyton rubrum DSM 16111; test: Antifungal microdilution MIC test; settings: DSM16111, comparative test
Protocol: as §1, §2, §3, §4, §5, §6, §7

[20] = system: Trichophyton tonsurans 264; test: Antifungal microdilution MIC test; settings: comparative test
Protocol: as §1, §2, §3, §4, §5, §6, §7

[21] = system: Trichophyton tonsurans DSM 12285; test: Antifungal microdilution MIC test; settings: DSM12285, comparative test
Protocol: as §1, §2, §3, §4, §5, §6, §7

[22] = system: Candida glabrata ATCC 15545; test: Antifungal microdilution MIC test; settings: Nakaseomyces glabratus, ATCC15545, comparative test
Protocol: as §1, §2, §3
as §4, with “determined. […]” for “determined.”

[23] = system: Candida krusei ATCC 6258; test: Antifungal microdilution MIC test; settings: Pichia kudriavzevii, ATCC6258, comparative test
Protocol: as §1, §2, §3
as §4, with “determined. […]” for “determined.”

[24] = system: Fusarium oxysporum 109; test: Antifungal microdilution MIC test; settings: comparative test
Protocol: as §1, §2, §3
as §4, with “determined. […]” for “determined.”

[25] = system: Fusarium oxysporum DSM 841; test: Antifungal microdilution MIC test; settings: DSM841, comparative test
Protocol: as §1, §2, §3
as §4, with “determined. […]” for “determined.”

[26] = system: Fusarium solani DSM 1164; test: Antifungal microdilution MIC test; settings: DSM1164, comparative test
Protocol: as §1, §2, §3
as §4, with “determined. […]” for “determined.”

With `Cc1cc(C2CCCCC2)n(O)c(=O)c1` [Ciclopirox, ciclopirox] the “concentration at which the number of viable cells decreased to less than 50%” value [1] was at least 5000 ng/mL, the “reduction of viable keratinocyte cells compared to the control” value [2] was 30% and the MIC ([3]; incubation time 24 h) was over 4 µg/mL. For the same molecule, the MIC ([3]; incubation time 48 h) was over 4 µg/mL, the MIC ([4]; incubation time 24 h) was over 4 µg/mL and the MIC ([4]; incubation time 48 h) was over 4 µg/mL. For the same molecule, the MIC ([5]; incubation time 24 h) was over 4 µg/mL, the MIC ([5]; incubation time 48 h) was over 4 µg/mL and the MIC ([6]; incubation time 24 h) was over 4 µg/mL. It also gave an MIC ([6]; incubation time 48 h) of over 4 µg/mL, an MIC ([7]; incubation time 24 h) of over 4 µg/mL and an MIC ([7]; incubation time 48 h) of over 4 µg/mL. It also gave an MIC ([8]; incubation time 24 h) of over 4 µg/mL, an MIC ([8]; incubation time 48 h) of over 4 µg/mL and an MIC ([9]; incubation time 24 h) of over 4 µg/mL. For the same molecule, the MIC ([9]; incubation time 48 h) was over 4 µg/mL, the “concentration with slight growth suppression” value ([9]; incubation time 24 h) was over 4 slight mg/L and the MIC ([10]; incubation time 24 h) was over 4 µg/mL. It also gave an MIC ([10]; incubation time 48 h) of over 4 µg/mL, an MIC ([11]; incubation time 24 h) of over 4 µg/mL and an MIC ([11]; incubation time 48 h) of over 4 µg/mL. The MIC ([12]; incubation time 24 h) was over 4 µg/mL, the MIC ([12]; incubation time 48 h) was over 4 µg/mL and the MIC ([13]; incubation time 24 h) was over 4 µg/mL. The MIC ([13]; incubation time 48 h) was over 4 µg/mL, the MIC ([13]; incubation time 72 h) was over 4 µg/mL and the MIC ([14]; incubation time 24 h) was over 4 µg/mL. The MIC ([14]; incubation time 48 h) was over 4 µg/mL, the MIC ([14]; incubation time 72 h) was over 4 µg/mL and the MIC ([15]; incubation time 24 h) was over 4 µg/mL. For the same molecule, the MIC ([15]; incubation time 48 h) was over 4 µg/mL, the MIC ([15]; incubation time 72 h) was over 4 µg/mL and the MIC ([16]; incubation time 24 h) was over 4 µg/mL. It also gave an MIC ([16]; incubation time 48 h) of over 4 µg/mL, an MIC ([16]; incubation time 72 h) of over 4 µg/mL and an MIC ([17]; incubation time 48 h) of over 4 µg/mL. For the same molecule, the MIC ([17]; incubation time 72 h) was over 4 µg/mL, the MIC ([18]; incubation time 24 h) was over 4 µg/mL and the MIC ([18]; incubation time 48 h) was over 4 µg/mL. For the same molecule, the MIC ([18]; incubation time 72 h) was over 4 µg/mL, the MIC ([19]; incubation time 24 h) was over 4 µg/mL and the MIC ([19]; incubation time 48 h) was over 4 µg/mL. For the same molecule, the MIC ([19]; incubation time 72 h) was over 4 µg/mL, the MIC ([20]; incubation time 48 h) was over 4 µg/mL and the MIC ([20]; incubation time 72 h) was over 4 µg/mL. It also gave an MIC ([21]; incubation time 48 h) of over 4 µg/mL, an MIC ([21]; incubation time 72 h) of over 4 µg/mL and an MIC ([22]; incubation time 24 h) of over 4 µg/mL. For the same molecule, the MIC ([22]; incubation time 48 h) was over 4 µg/mL, the MIC ([23]; incubation time 24 h) was over 4 µg/mL and the MIC ([23]; incubation time 48 h) was over 4 µg/mL. The MIC ([24]; incubation time 24 h) was over 4 µg/mL, the MIC ([24]; incubation time 48 h) was over 4 µg/mL and the MIC ([25]; incubation time 24 h) was over 4 µg/mL. The MIC ([25]; incubation time 48 h) was over 4 µg/mL, the MIC ([26]; incubation time 24 h) was over 4 µg/mL and the MIC ([26]; incubation time 48 h) was over 4 µg/mL.
